These are literature values, as cited in US20260218136A1, “R[…], COMPOSITIONS, AND METHODS OF USE” (priority 2022, published 2026).

As usually defined, the IC50 is the concentration at which inhibition is half-maximal.

The conditions of this data set: target and test not given; stated in the description of the rapalog bridging factor.

Take `CO[C@H]1[C@@H](O)[C@H](C)C[C@H](C)/C=C/C=C/C=C(\C)[C@@H](c2c[nH]c3c(C)cccc23)C[C@@H]2CC[C@@H](C)[C@@](O)(O2)C(=O)C(=O)N2CCCC[C@H]2C(=O)O[C@H]([C@H](C)C[C@@H]2CC[C@@H](O)[C@H](OC)C2)C[C@H](O)[C@H](C)/C=C(\C)[C@H]1O` [AP21967, C-16-(S)-7-methylindolerapamycin]: the concentration for half-maximal inhibition (IC50) was 10 nM.
